# Experimental data from ChEMBL document CHEMBL1201862, “PubChem BioAssay data set” (2004).
#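 Cultured in 96-well plates, cells were exposed to test compound for 48 hours across five concentrations. Abbreviation: GI50, concentration required for 50% inhibition of growth.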 Activity calls are given as the source filed them. No stated cut-off is given here; in the data, active = GI50 up to about 1.1 µM and inactive = higher.
# Columns and labels:
# Assay in all cases: growth of human tumour cells (NCI), 48 h
# 786-0 = system: 786-0
# A498 = system: A498
# A549 = system: A549
# ACHN = system: ACHN
# BT-549 = system: BT-549
# CAKI-1 = system: CAKI-1
# COLO 205 = system: COLO 205
# DU-145 = system: DU-145
# EKVX = system: EKVX
# HCC 2998 = system: HCC 2998
# HCT-116 = system: HCT-116
# HCT-15 = system: HCT-15
# HOP-62 = system: HOP-62
# HOP-92 = system: HOP-92
# HT-29 = system: HT-29
# Hs-578T = system: Hs-578T
# IGROV-1 = system: IGROV-1
# KM12 = system: KM12
# LOX IMVI = system: LOX IMVI
# M14 = system: M14
# MCF7 = system: MCF7
# MDA-MB-231 = system: MDA-MB-231
# MDA-MB-435 = system: MDA-MB-435
# MDA-N = system: MDA-N
# MOLT-4 = system: MOLT-4
# Malme-3M = system: Malme-3M
# NCI-H226 = system: NCI-H226
# NCI-H23 = system: NCI-H23
# NCI-H460 = system: NCI-H460
# NCI-H522 = system: NCI-H522
# NCI/ADR-RES = system: NCI/ADR-RES
# OVCAR-3 = system: OVCAR-3
# OVCAR-4 = system: OVCAR-4
# OVCAR-5 = system: OVCAR-5
# OVCAR-8 = system: OVCAR-8
# PC-3 = system: PC-3
# RPMI-8226 = system: RPMI-8226
# RXF 393 = system: RXF 393
# SF-268 = system: SF-268
# SF-295 = system: SF-295
# SF-539 = system: SF-539
# SK-MEL-28 = system: SK-MEL-28
# SK-MEL-2 = system: SK-MEL-2
# SK-MEL-5 = system: SK-MEL-5
# SK-OV-3 = system: SK-OV-3
# SN12C = system: SN12C
# SNB-19 = system: SNB-19
# SNB-75 = system: SNB-75
# SW-620 = system: SW-620
# T47D = system: T47D
# TK-10 = system: TK-10
# U-251 = system: U-251
# UACC-257 = system: UACC-257
# UACC-62 = system: UACC-62
# UO-31 = system: UO-31
# CCRF-CEM = system: CCRF-CEM
# HL-60 = system: HL-60
# K562 = system: K562
# SR = system: SR
structure (smiles),measurement,setting,value
C=CCN1CCC(OC(=O)C(O)(C#CC)C2CCCC2)CC1 (centres undefined),GI50,786-0,> 100 µM (inactive)
same,GI50,A498,> 100 µM (inactive)
same,GI50,A549,> 100 µM (inactive)
same,GI50,ACHN,> 100 µM (inactive)
same,GI50,BT-549,> 100 µM (inactive)
same,GI50,CAKI-1,> 100 µM (inactive)
same,GI50,COLO 205,> 100 µM (inactive)
same,GI50,DU-145,> 100 µM (inactive)
same,GI50,EKVX,> 100 µM (inactive)
same,GI50,HCC 2998,> 100 µM (inactive)
same,GI50,HCT-116,> 100 µM (inactive)
same,GI50,HCT-15,> 100 µM
same,GI50,HOP-62,> 100 µM (inactive)
same,GI50,HOP-92,> 100 µM (inactive)
same,GI50,HT-29,> 100 µM (inactive)
same,GI50,Hs-578T,> 100 µM (inactive)
same,GI50,IGROV-1,> 100 µM (inactive)
same,GI50,KM12,> 100 µM (inactive)
same,GI50,LOX IMVI,> 100 µM (inactive)
same,GI50,M14,> 100 µM (inactive)
same,GI50,MCF7,> 100 µM (inactive)
same,GI50,MDA-MB-231,> 100 µM (inactive)
same,GI50,MDA-MB-435,> 100 µM (inactive)
same,GI50,MDA-N,> 100 µM (inactive)
same,GI50,MOLT-4,> 100 µM (inactive)
same,GI50,Malme-3M,> 100 µM (inactive)
same,GI50,NCI-H226,> 100 µM (inactive)
same,GI50,NCI-H23,> 100 µM (inactive)
same,GI50,NCI-H460,> 100 µM (inactive)
same,GI50,NCI-H522,> 100 µM (inactive)
same,GI50,NCI/ADR-RES,> 100 µM (inactive)
same,GI50,OVCAR-3,> 100 µM (inactive)
same,GI50,OVCAR-4,> 100 µM (inactive)
same,GI50,OVCAR-5,> 100 µM (inactive)
same,GI50,OVCAR-8,> 100 µM (inactive)
same,GI50,PC-3,> 100 µM (inactive)
same,GI50,RPMI-8226,> 100 µM (inactive)
same,GI50,RXF 393,> 100 µM (inactive)
same,GI50,SF-268,> 100 µM (inactive)
same,GI50,SF-295,> 100 µM (inactive)
same,GI50,SF-539,> 100 µM (inactive)
same,GI50,SK-MEL-28,> 100 µM (inactive)
same,GI50,SK-MEL-2,> 100 µM (inactive)
same,GI50,SK-MEL-5,> 100 µM (inactive)
same,GI50,SK-OV-3,> 100 µM (inactive)
same,GI50,SN12C,> 100 µM (inactive)
same,GI50,SNB-19,> 100 µM (inactive)
same,GI50,SNB-75,> 77.3 µM (inactive)
same,GI50,SW-620,> 100 µM (inactive)
same,GI50,T47D,> 100 µM (inactive)
same,GI50,TK-10,> 100 µM (inactive)
same,GI50,U-251,> 100 µM (inactive)
same,GI50,UACC-257,> 100 µM (inactive)
same,GI50,UACC-62,> 100 µM (inactive)
same,GI50,UO-31,> 100 µM (inactive)
Cc1nc2c(O)nc3ccccc3c2o1,GI50,786-0,> 100 µM (inactive)
same,GI50,A498,> 100 µM (inactive)
same,GI50,A549,> 100 µM (inactive)
same,GI50,ACHN,> 100 µM (inactive)
same,GI50,BT-549,> 100 µM (inactive)
same,GI50,CAKI-1,> 100 µM (inactive)
same,GI50,CCRF-CEM,> 100 µM (inactive)
same,GI50,COLO 205,> 100 µM (inactive)
same,GI50,DU-145,> 100 µM (inactive)
same,GI50,EKVX,48.9 µM (inactive)
same,GI50,HCC 2998,> 100 µM (inactive)
same,GI50,HCT-116,> 100 µM (inactive)
same,GI50,HCT-15,> 100 µM
same,GI50,HL-60,> 100 µM (inactive)
same,GI50,HOP-62,> 100 µM (inactive)
same,GI50,HOP-92,> 100 µM (inactive)
same,GI50,HT-29,> 100 µM (inactive)
same,GI50,Hs-578T,> 100 µM (inactive)
same,GI50,IGROV-1,32 µM (inactive)
same,GI50,KM12,> 100 µM (inactive)
same,GI50,LOX IMVI,> 100 µM (inactive)
same,GI50,M14,> 100 µM (inactive)
same,GI50,MCF7,> 100 µM (inactive)
same,GI50,MDA-MB-231,> 100 µM (inactive)
same,GI50,MDA-MB-435,> 100 µM (inactive)
same,GI50,MDA-N,> 100 µM (inactive)
same,GI50,MOLT-4,> 10 µM (inactive)
same,GI50,Malme-3M,> 100 µM (inactive)
same,GI50,NCI-H226,> 100 µM (inactive)
same,GI50,NCI-H23,> 100 µM (inactive)
same,GI50,NCI-H460,> 100 µM (inactive)
same,GI50,NCI/ADR-RES,> 100 µM (inactive)
same,GI50,OVCAR-3,> 100 µM (inactive)
same,GI50,OVCAR-4,> 100 µM (inactive)
same,GI50,OVCAR-5,> 100 µM (inactive)
same,GI50,OVCAR-8,> 100 µM (inactive)
same,GI50,PC-3,> 100 µM (inactive)
same,GI50,RPMI-8226,> 100 µM (inactive)
same,GI50,RXF 393,> 100 µM (inactive)
same,GI50,SF-268,> 100 µM (inactive)
same,GI50,SF-295,> 100 µM (inactive)
same,GI50,SF-539,> 100 µM (inactive)
same,GI50,SK-MEL-28,> 100 µM (inactive)
same,GI50,SK-MEL-2,> 100 µM (inactive)
same,GI50,SK-MEL-5,> 100 µM (inactive)
same,GI50,SK-OV-3,> 100 µM (inactive)
same,GI50,SN12C,> 100 µM (inactive)
same,GI50,SNB-19,> 100 µM (inactive)
same,GI50,SNB-75,> 100 µM (inactive)
same,GI50,SW-620,> 100 µM (inactive)
same,GI50,T47D,> 100 µM (inactive)
same,GI50,TK-10,> 100 µM (inactive)
same,GI50,U-251,> 100 µM (inactive)
same,GI50,UACC-257,> 100 µM (inactive)
same,GI50,UACC-62,> 100 µM (inactive)
same,GI50,UO-31,> 100 µM (inactive)
COC(=O)c1ccc(/C=N/c2cc(C)nn2-c2ccccc2)cc1,GI50,786-0,67 µM (inactive)
same,GI50,A549,76.6 µM (inactive)
same,GI50,ACHN,> 100 µM (inactive)
same,GI50,BT-549,34.9 µM (inactive)
same,GI50,CAKI-1,93.1 µM (inactive)
same,GI50,CCRF-CEM,29.2 µM (inactive)
same,GI50,COLO 205,13.5 µM (inactive)
same,GI50,DU-145,41 µM (inactive)
same,GI50,EKVX,75.7 µM (inactive)
same,GI50,HCC 2998,2.79 µM (inactive)
same,GI50,HCT-116,29 µM (inactive)
same,GI50,HCT-15,13.7 µM
same,GI50,HL-60,20.1 µM (inactive)
same,GI50,HOP-62,18.5 µM (inactive)
same,GI50,HOP-92,99.1 µM (inactive)
same,GI50,HT-29,22.2 µM (inactive)
same,GI50,Hs-578T,91.2 µM (inactive)
same,GI50,IGROV-1,34.9 µM (inactive)
same,GI50,K562,4.5 µM (inactive)
same,GI50,KM12,24.2 µM (inactive)
same,GI50,LOX IMVI,35.9 µM (inactive)
same,GI50,M14,22.5 µM (inactive)
same,GI50,MCF7,15.1 µM (inactive)
same,GI50,MDA-MB-231,> 100 µM (inactive)
same,GI50,MDA-MB-435,8.65 µM (inactive)
same,GI50,MDA-N,13.8 µM (inactive)
same,GI50,MOLT-4,8.47 µM (inactive)
same,GI50,Malme-3M,70.8 µM (inactive)
same,GI50,NCI-H226,89.5 µM (inactive)
same,GI50,NCI-H23,48.5 µM (inactive)
same,GI50,NCI-H460,10.6 µM (inactive)
same,GI50,NCI-H522,28.8 µM (inactive)
same,GI50,NCI/ADR-RES,49.3 µM (inactive)
same,GI50,OVCAR-3,12 µM (inactive)
same,GI50,OVCAR-4,38.6 µM (inactive)
same,GI50,OVCAR-5,> 100 µM (inactive)
same,GI50,OVCAR-8,73.8 µM (inactive)
same,GI50,PC-3,40.9 µM (inactive)
same,GI50,RPMI-8226,20.4 µM (inactive)
same,GI50,RXF 393,> 100 µM (inactive)
same,GI50,SF-268,57.1 µM (inactive)
same,GI50,SF-295,35.8 µM (inactive)
same,GI50,SF-539,> 100 µM (inactive)
same,GI50,SK-MEL-28,82.2 µM (inactive)
same,GI50,SK-MEL-2,49 µM (inactive)
same,GI50,SK-MEL-5,19.4 µM (inactive)
same,GI50,SK-OV-3,34.4 µM (inactive)
same,GI50,SN12C,48.3 µM (inactive)
same,GI50,SNB-19,33.5 µM (inactive)
same,GI50,SNB-75,21.1 µM (inactive)
same,GI50,SR,19.2 µM (inactive)
same,GI50,SW-620,20.7 µM (inactive)
same,GI50,T47D,16.4 µM (inactive)
same,GI50,TK-10,2.12 µM (inactive)
same,GI50,U-251,20.6 µM (inactive)
same,GI50,UACC-257,6.04 µM (inactive)
same,GI50,UACC-62,65.8 µM (inactive)
same,GI50,UO-31,> 100 µM (inactive)
